System: HIV with mutations in the HIV protease sequence
Experiment: Phenotypic fold resistance to protease inhibitors, protease mutations 84A/84L/84C/54M/54L/54V in a background (Examples 8-13)
Type: cell-based, HIV-1
Outline: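 Fold-resistance equals chimeric-virus IC50 divided by IC50 of a parallel wild-type reference HIV-1 strain. Chimeras come from PCR-amplified PR/RT genes recombined into PR/RT-deleted HXB2 proviral DNA inside CD4+ T cells, then cultured with graded drug concentrations.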

For `Cc1c(O)cccc1C(=O)N[C@@H](CSc1ccccc1)[C@H](O)CN1C[C@H]2CCCC[C@H]2C[C@H]1C(=O)NC(C)(C)C` [Nelfinavir, nelfinavir], the “Fold change in IC50” value (Table 12, V055199, genotype 10I + 33F + 54M + 90M) was 11.7 fold, the “Fold change in IC50” value (Table 13, V19263, genotype 77I) was 0.9 fold and the “Fold change in IC50” value (Table 13, V20160, genotype WT) was 0.7 fold. For the same compound, the “Fold change in IC50” value (Table 13, V021667, genotype 10I) was 1.0 fold, the “Fold change in IC50” value (Table 13, V030496, genotype 10I + 77I) was 0.7 fold and the “Fold change in IC50” value (Table 13, V048868, genotype 10I + 54L + 71V + 77I + 90M) was 15.6 fold. For the same compound, the “Fold change in IC50” value (Table 13, V048874, genotype 10I + 33F + 54L + 71V + 77I + 90M) was 14.5 fold, the “Fold change in IC50” value (Table 13, V048875, genotype 10I + 33F + 54L + 71V + 77I + 90M) was 12.5 fold and the “Fold change in IC50” value (Table 13, V048877, genotype 10I + 33F + 77I + 90M) was 9.4 fold. For the same compound, the “Fold change in IC50” value (Table 13, V048880, genotype 10I + 33F + 77I + 90M) was 4.9 fold, the “Fold change in IC50” value (Table 13, V052940, genotype 71V) was 0.6 fold and the “Fold change in IC50” value (Table 13, V052942, genotype 10I + 71V) was 0.9 fold. For the same compound, the “Fold change in IC50” value (Table 13, V052943, genotype 10I + 90M) was 2.2 fold, the “Fold change in IC50” value (Table 13, V052944, genotype 10I + 90M) was 1.4 fold and the “Fold change in IC50” value (Table 13, V052945, genotype 77I + 90M) was 3.0 fold. For the same compound, the “Fold change in IC50” value (Table 13, V052946, genotype 71V + 90M) was 3.0 fold, the “Fold change in IC50” value (Table 13, V052947, genotype 10I + 77I + 90M) was 8.2 fold and the “Fold change in IC50” value (Table 13, V052948, genotype 10I + 71V + 90M) was 9.0 fold. For the same compound, the “Fold change in IC50” value (Table 13, V052949, genotype 10I + 71V + 77I + 90M) was 8.6 fold, the “Fold change in IC50” value (Table 13, V052950, genotype 33F) was 1.0 fold and the “Fold change in IC50” value (Table 13, V052951, genotype 33F + 77I) was 5.2 fold. For the same compound, the “Fold change in IC50” value (Table 13, V052953, genotype 10I + 33F + 77I) was 0.9 fold, the “Fold change in IC50” value (Table 13, V052954, genotype 33F + 77I + 90M) was 5.9 fold and the “Fold change in IC50” value (Table 13, V052955, genotype 33F + 71V + 90M) was 36.6 fold. For the same compound, the “Fold change in IC50” value (Table 13, V052968, genotype 10L/I + 33F/L + 54L + 77I) was 3.5 fold, the “Fold change in IC50” value (Table 13, V052969, genotype 10I + 33F + 54L + 90M) was 3.4 fold and the “Fold change in IC50” value (Table 13, V052970, genotype 54L) was 1.6 fold. The “Fold change in IC50” value (Table 13, V052971, genotype 10I + 54L) was 1.0 fold, the “Fold change in IC50” value (Table 13, V052972, genotype 54L + 77I) was 3.0 fold and the “Fold change in IC50” value (Table 13, V052973, genotype 10I + 54L + 77I) was 2.8 fold. The “Fold change in IC50” value (Table 13, V052974, genotype 10I + 54L + 90M) was 2.6 fold, the “Fold change in IC50” value (Table 13, V052975, genotype 10I + 54L + 71V + 90M) was 41.3 fold and the “Fold change in IC50” value (Table 13, V052976, genotype 10I + 54L + 71V + 77I + 90M) was 8.9 fold. The “Fold change in IC50” value (Table 13, V053832, genotype 10I + 33F) was 1.6 fold, the “Fold change in IC50” value (Table 13, V053854, genotype 54L + 71V) was 5.9 fold and the “Fold change in IC50” value (Virco ID 214846, genotype 10I + 33F + 54V + 71V + 77I + 90M, vs mean IC50 of wild type laboratory HIV strain) was 43.5 fold. For the same compound, the “Fold change in IC50” value (Virco ID V021667, genotype 10I, vs mean IC50 of wild type laboratory HIV strain) was 1.0 fold, the “Fold change in IC50” value (Virco ID V030496, genotype 10I + 77I, vs mean IC50 of wild type laboratory HIV strain) was 0.7 fold and the “Fold change in IC50” value (Virco ID V048876, genotype 33F + 54V + 77I + 90M, vs mean IC50 of wild type laboratory HIV strain) was 1.6 fold. The “Fold change in IC50” value (Virco ID V048877, genotype 10I + 33F + 77I + 90M, vs mean IC50 of wild type laboratory HIV strain) was 9.4 fold, the “Fold change in IC50” value (Virco ID V048880, genotype 10I + 33F + 77I + 90M, vs mean IC50 of wild type laboratory HIV strain) was 4.9 fold and the “Fold change in IC50” value (Virco ID V052940, genotype 71V, vs mean IC50 of wild type laboratory HIV strain) was 0.6 fold. For the same compound, the “Fold change in IC50” value (Virco ID V052942, genotype 10I + 71V, vs mean IC50 of wild type laboratory HIV strain) was 0.9 fold, the “Fold change in IC50” value (Virco ID V052943, genotype 10I + 90M, vs mean IC50 of wild type laboratory HIV strain) was 2.2 fold and the “Fold change in IC50” value (Virco ID V052944, genotype 10I + 90M, vs mean IC50 of wild type laboratory HIV strain) was 1.4 fold. For the same compound, the “Fold change in IC50” value (Virco ID V052946, genotype 71V + 90M, vs mean IC50 of wild type laboratory HIV strain) was 3.0 fold, the “Fold change in IC50” value (Virco ID V052947, genotype 10I + 77I + 90M, vs mean IC50 of wild type laboratory HIV strain) was 8.2 fold and the “Fold change in IC50” value (Virco ID V052948, genotype 10I + 71V + 90M, vs mean IC50 of wild type laboratory HIV strain) was 9.0 fold. The “Fold change in IC50” value (Virco ID V052949, genotype 10I + 71V + 77I + 90M, vs mean IC50 of wild type laboratory HIV strain) was 8.6 fold, the “Fold change in IC50” value (Virco ID V052950, genotype 33F, vs mean IC50 of wild type laboratory HIV strain) was 1.0 fold and the “Fold change in IC50” value (Virco ID V052951, genotype 33F + 77I, vs mean IC50 of wild type laboratory HIV strain) was 5.2 fold. The “Fold change in IC50” value (Virco ID V052953, genotype 10I + 33F + 77I, vs mean IC50 of wild type laboratory HIV strain) was 0.9 fold, the “Fold change in IC50” value (Virco ID V052954, genotype 33F + 77I + 90M, vs mean IC50 of wild type laboratory HIV strain) was 5.9 fold and the “Fold change in IC50” value (Virco ID V052955, genotype 33F + 71V + 90M, vs mean IC50 of wild type laboratory HIV strain) was 36.6 fold. For the same compound, the “Fold change in IC50” value (Virco ID V052957, genotype 10I + 33F + 54V + 90M, vs mean IC50 of wild type laboratory HIV strain) was 6.9 fold, the “Fold change in IC50” value (Virco ID V052958, genotype 10I + 33F + 54V + 77I + 90M, vs mean IC50 of wild type laboratory HIV strain) was 4.8 fold and the “Fold change in IC50” value (Virco ID V052959, genotype 10I + 33F + 54V + 77I + 90M, vs mean IC50 of wild type laboratory HIV strain) was 7.5 fold. For the same compound, the “Fold change in IC50” value (Virco ID V052960, genotype 10I + 33F + 54V + 71V + 90M, vs mean IC50 of wild type laboratory HIV strain) was 40.7 fold, the “Fold change in IC50” value (Virco ID V052961, genotype 54V, vs mean IC50 of wild type laboratory HIV strain) was 1.0 fold and the “Fold change in IC50” value (Virco ID V052962, genotype 10I + 54V, vs mean IC50 of wild type laboratory HIV strain) was 0.6 fold. For the same compound, the “Fold change in IC50” value (Virco ID V052963, genotype 54V + 77I + 90M, vs mean IC50 of wild type laboratory HIV strain) was 3.2 fold, the “Fold change in IC50” value (Virco ID V052964, genotype 54V + 71V + 90M, vs mean IC50 of wild type laboratory HIV strain) was 3.3 fold and the “Fold change in IC50” value (Virco ID V052965, genotype 10I + 54V + 77I + 90M, vs mean IC50 of wild type laboratory HIV strain) was 15.1 fold. For the same compound, the “Fold change in IC50” value (Virco ID V052966, genotype 10I + 54V + 71V + 90M, vs mean IC50 of wild type laboratory HIV strain) was 55.4 fold, the “Fold change in IC50” value (Virco ID V052967, genotype 10I + 54V + 71V + 77I + 90M, vs mean IC50 of wild type laboratory HIV strain) was 0.8 fold and the “Fold change in IC50” value (Virco ID V053358, genotype 33F + 54V + 77I + 90M, vs mean IC50 of wild type laboratory HIV strain) was 2.1 fold. For the same compound, the “Fold change in IC50” value (Virco ID V053831, genotype 33F + 54V, vs mean IC50 of wild type laboratory HIV strain) was 5.9 fold and the “Fold change in IC50” value (Virco ID V053832, genotype 10I + 33F, vs mean IC50 of wild type laboratory HIV strain) was 1.6 fold.

— patent US8574831B2, “Mutational profiles in HIV-1 reverse transcriptase correlated with phenotypic drug resistance” (Virco N.V., priority 2000, dated 2013)
